Consider 1 molecule from patent US8318297B2, “Titanate nanowire, titanate nanowire scaffold, and processes of making same” (Board of Trustees of the University of Arkansas, priority 2007, dated 2012).

The data set can be described thus: Controlled release of crystal violet from nanowire scaffolds on Ti foil. Format: physicochemical. As to conditions: for Release (%): crystal violet released from nanowire scaffolds on Ti, 10 mL fresh water. The method, then:
A piece of dried titanium foil (2.2 cm^2) that was coated with nanofiber scaffolds was soaked in 100 mL of 0.001 mol/L crystal violet (C25H30ClN3, as a simulated drug) solution for 12 hours at room temperature. Then, the foil was collected, rinsed with deionized water, dried at room temperature overnight, and placed in 10 mL of fresh water for releasing the crystal violet molecules. The released crystal violet was measured on the Beckman DU-530 UV-Visible Spectrometer. A piece of dried titanium foil (2.2 cm^2) pre-coated with the nanowire scaffolds was soaked in 100 mL of 0.001 mol/L crystal violet (C25H30ClN3, as a simulated drug) solution for 12 hrs at room temperature. Then, the foil was collected, rinsed with deionized water, dried at room temperature overnight, and was then placed in 10 mL of fresh water for releasing the crystal violet molecules. The released crystal violet was measured on the Beckman DU-530 UV-Visible Spectrometer.

In the case of `CN(C)c1ccc(C(=C2C=CC(=[N+](C)C)C=C2)c2ccc(N(C)C)cc2)cc1` [Crystal violet, crystal violet], the “Release (%)” value (time 0 hours) came out at 22.6%; the “Release (%)” value (time 2 hours) is recorded as 82.0%; the “Release (%)” value (time 2 hours, listed as model drug) is on record as about 80%; the “Release (%)” value (time 4 hours) is 95.0%; the “Release (%)” value (time 6 hours) is listed as 99.2%; the “Release (%)” value (time 12 hours) is 100%. For the same molecule, the “time at which the model drug's concentration reached a maximum” value (release from nanowire scaffold on Ti foil) is 6 h.
